Source: patent US9085523B2, “Compound for treating cartilage disorders” (ONO PHARMACEUTICAL CO., LTD., priority 2011, dated 2015)

Assays:
[1] = In vitro hydrolysis test in rabbit plasma (release of Compound A, LC/MS/MS); type: in vitro ADME; conditions: 37° C.
Protocol: The particles were retained inside articular cavity after intra-articular administration. The sustained period of active form inside articular cavity changes depending on hydrolysis period of a test compound. Therefore, the hydrolysis period of a test compound was evaluated and set as an indicator of sustained release of the active form.
Various test compounds were dissolved in dimethylsulfoxide, so that the concentration of the solution calculated in Compound A becomes 0.5 mg/mL. The solution (10 μL) was added to 0.5 mL of rabbit plasma and incubated at 37° C. in water bath. 50 μL of the solution was sampled 0, 1, 3, 8, 24, 30, 48 and 72 minutes after the incubation and the concentration of Compound A in sample was determined.
After 50 μL of the solution was sampled in a polyethylene tube, 10 μL of deuterium-labeled Compound A as internal standard and 2 mL of acetonitrile were added, followed by stirring. After centrifugation, 100 μL of the supernatant was sampled in a polyethylene tube and 900 μL of acetonitrile was added thereto, followed by stirring. After filtration, the supernatant was measured by LC/MS/MS and the 50% hydrolysis time was calculated.

[2] = tested on: blood pressure and heart rate of normal rabbit; experiment: Measurement of blood pressure and heart rate of normal rabbit; type: in vivo; conditions: for effect on circulatory system: at the dose exhibiting efficacy on the knee cartilage defect model, comparison of blood concentrations of Compound A
Protocol: Compound A acts on circulatory system and affects on blood pressure and heart rate.
Blood pressure and heart rate were measured by the following method using female Japanese white domestic rabbit. An animal was retained in dorsal position on an operation table on a measurement day. After the hair of right femur area was removed, a local anesthetic was given by administering an appropriate amount of lidocaine injection. The skin and muscle was incised to expose femur artery and vein, and a catheter (manufactured by Atom Medical Corporation) filled with saline containing heparin (about 10 units/mL) beforehand was placed in the right femur artery.
After retaining the rabbit in a rabbit blood sampling box (manufactured by NATSUME SEISAKUSHO CO LTD.), the catheter was connected to a pressure transducer (DX-100: manufactured by NIHON KOHDEN CORPORATION) to measure blood pressure with a strain pressure amplifier (AP-641G: manufactured by NIHON KOHDEN CORPORATION) and heart rate with an instantaneous heart rate counter (AT-601G: manufactured by NIHON KOHDEN CORPORATION). Blood pressure and waveform of heartbeat were recorded by a recorder (WR3701: manufactured by Graphtech Corporation). Measurement was conducted under awake condition after confirming blood pressure and heart rate became stable.
(§1) Compound A was administered cumulatively through right auricular vein with a syringe pump (manufactured by TERUMO CORPORATION) at 0 (medium: saline), 100, 300 and 1000 ng/kg/min (administration volume: 1 mL/kg/h). Each dose was administered for more than 60 minutes and blood was collected from left auricular vein 60 minutes after the administration started. Blood was collected with a 1 mL syringe with a needle of […] treated with heparin (about 10 units/mL) beforehand. The collected blood was centrifuged at 4° C. 13,500 g for 5 minutes and the obtained supernatant (plasma) was stored at […] to be provided for the measurement of blood concentration of Compound A.
Increase or decrease ratio of mean blood pressure and heart rate at 5, 10, 15, 20, 30, 40, 50 and 60 minutes after the administration started were calculated based on the values of pre-administration of each subject. Maximum change of blood pressure and heart rate between before and after the administration of Test Compounds was evaluated.

[3] = tested on: knee cartilage defect model; experiment: Evaluation of cartilage tissue score in knee cartilage defect model; type: in vivo; conditions: rabbit, intra-articular, bi-weekly, 6 times; vs vehicle, Steel test
Protocol: Knee cartilage defect model was prepared by the following method. Female Japanese white domestic rabbit (2.5-3.5 kg) was anesthetized by the administration of sodium pentobarbital (30 mg/kg) through ear vein. The hair around knee articulations of both hind legs was removed and disinfected with iodine tincture. After the incision of the skin of an inert right hind leg, the boundary between patella ligament and articular capsule was incised in dorsal position. Patella was dislocated outward to expose trochlea femoris largely and medial condyle of femur was drilled with a dental drill to prepare small hole (diameter: 4 mm, depth: about 2 mm). The surgical incision was sutured and the surgical site was disinfected with iodine tincture. Femur of a left knee or both knees of pseudo-operation group was only exposed by the same operation without preparing small hole. To avoid infection disease, 100,000 units of benzylpenicilline procaine/125 mg titers of dihydrostreptomycin sulfate/I mg of procaine hydrochloride per rabbit was administered in gluteal muscle. A test compound (12-200 μg/knee, calculated in Compound A which is active form of test compounds) and its medium (5% glucose solution containing 0.05% Tween 80) were administered inside articular cavity of right knee of rabbit at bi-weekly intervals, 6 times for total, and from a week after operation. […]

[4] = Blood concentration of Compound A during continuous intravenous administration to normal rabbit; type: in vivo; conditions: female, Japanese white, plasma, 60 minutes after administration started
Protocol: as §1

[5] = Particle forming: mean particle diameter (Dv) and particle distribution (PDI) of suspensions by laser diffraction; type: physicochemical; conditions: 5% glucose solution containing 0.05% Tween 80
Protocol: In the specification, the mean particle diameter means the mean particle diameter measured by a laser diffraction/scattering method. In the specification, the mean particle diameter is measured by a laser diffraction grain size distribution measuring apparatus (SALD-2100: manufactured by Shimadzu Corp.). In terms of mean particle diameter, various values such as volume mean diameter, surface mean diameter, median diameter and the like are used as an indicator of mean particle diameter, and in the specification, volume mean diameter (Dv) is used as a mean particle diameter.
In addition, a particle to be injected inside articular cavity is preferably a particle with a mean particle diameter with less variance and uniform size. The variance of mean particle diameter can be evaluated by measuring particle size distribution and the particle size distribution can be measured by a laser diffraction grain size distribution measuring apparatus as well as a mean particle diameter. […] In the description, PDI value and Dn was measured by a laser diffraction grain size distribution measuring apparatus (SALD-2100: manufactured by Shimadzu Corp.).
To distilled water, Compound 4-11 dissolved in ethanol was added slowly, 5% glucose solution and 5% glucose solution containing 0.05% Tween 80 with stirring. […] The quantity of each component is as follows, […]

[6] = rabbit, intravenous, 1000 ng/kg/min

SMILES: CCCCCCCCCCCCCCCOc1cccc(C(=O)OCCOC(=O)CCC/C=C\C[C@@H]2[C@@H](/C=C/C[C@H](O)C3(CC)CCC3)[C@H](O)C[C@H]2Cl)c1 [Compound 4-1, 2-{[(5Z)-7-{(1R,2R,3R,5R)-5-chloro-2-[(1E,4S)-4-(1-ethylcyclobutyl)-4-hydroxy-1-buten-1-yl]-3-hydroxycyclopentyl}-5-heptenoyl]oxy}ethyl 3-(pentadecyloxy)benzoate]
- Time of 50% hydrolysis [1]: 10.6 days
- effect on circulatory system [2]: hardly affects on circulatory system

SMILES: CCCCCCCCCCCCCCCOc1ccc(C(=O)OCCOC(=O)CCC/C=C\C[C@@H]2[C@@H](/C=C/C[C@H](O)C3(CC)CCC3)[C@H](O)C[C@H]2Cl)cc1 [Compound 4-11, 2-{[(5Z)-7-{(1R,2R,3R,5R)-5-chloro-2-[(1E,4S)-4-(1-ethylcyclobutyl)-4-hydroxy-1-buten-1-yl]-3-hydroxycyclopentyl}-5-heptenoyl]oxy}ethyl 4-(pentadecyloxy)benzoate]
- Time of 50% hydrolysis [1]: 7.3 days
- effect on circulatory system [2]: hardly affects on circulatory system

SMILES: CCCCCCCCCCCCCCCCc1ccc(C(=O)OCCCOC(=O)CCC/C=C\C[C@@H]2[C@@H](/C=C/C[C@H](O)C3(CC)CCC3)[C@H](O)C[C@H]2Cl)cc1 [Compound 6-4, 3-{[(5Z)-7-{(1R,2R,3R,5R)-5-chloro-2-[(1E,4S)-4-(1-ethylcyclobutyl)-4-hydroxy-1-buten-1-yl]-3-hydroxycyclopentyl}-5-heptenoyl]oxy}propyl 4-hexadecylbenzoate]
- Time of 50% hydrolysis [1]: 7.8 days

SMILES: CCCCCCCCCCCCCCCC#CCOC(=O)CCC/C=C\C[C@@H]1[C@@H](/C=C/C[C@H](O)C2(CC)CCC2)[C@H](O)C[C@H]1Cl [Compound 19, 2-octadecyn-1-yl(5Z)-7-{(1R,2R,3R,5R)-5-chloro-2-[(1E,4S)-4-(1-ethylcyclobutyl), 4-hydroxy-1-buten-1-yl]-3-hydroxycyclopentyl}-5-heptenoate]
- cartilage tissue score [3]: significantly improved
- Time of 50% hydrolysis [1]: 26.2 days
- effect on circulatory system [2]: hardly affects on circulatory system

SMILES: CCC(CCCCl)[C@@H](O)C/C=C/[C@@H]1[C@@H](C/C=C\CCCC(=O)O)[C@H](Cl)C[C@H]1O (stereo partly drawn) [Compound A, (5Z)-7-{(1R,2R,3R,5R)-5-chloro-2-[(1E,4S)-4-(1-ethylchlorobutyl)-4-hydroxy-1-butenyl]-3-hydroxycyclopentyl}-5-heptenoic acid]
- concentration at 60 min ([4]; continuous intravenous 100 ng/kg/min): 2 ng/mL
- concentration at 60 min ([4]; continuous intravenous 300 ng/kg/min): 5.9 ng/mL
- concentration at 60 min ([4]; continuous intravenous 1000 ng/kg/min): 24.3 ng/mL
- blood concentration that does not affect blood pressure ([2]; rabbit): ≤ 5.9 ng/mL
- blood concentration that does not affect heart rate ([2]; rabbit): ≤ 2.0 ng/mL
- increase of heart rate at maximum ([2]; rabbit, intravenous, 100 ng/kg/min): about 5%
- increase of heart rate ([2]; rabbit, intravenous, 300 ng/kg/min): 15%
- decrease of blood pressure [2, 6]: 16 mmHg
- increase of heart rate [2, 6]: 20%
- decrease of blood pressure at maximum ([2]; rabbit, intravenous, 100 and 300 ng/kg/min): ≤ 5 mmHg

SMILES: CCCCCCCCCCCCCCCCCC[N+](C)(C)CCOC(=O)CCC/C=C\C[C@@H]1[C@@H](/C=C/C[C@H](O)C2(CC)CCC2)[C@H](O)C[C@H]1Cl.[Br-] [Reference Example 3, N-(2-{[(5Z)-7-{(1R,2R,3R,5R)-5-chloro-2-[(1E,4S)-4-(1-ethylcyclobutyl)-4-hydroxy-1-buten-1-yl]-3-hydroxycyclopentyl}-5-heptenoyl]oxy}ethyl)-N,N-di methyl-octadecyl ammonium bromide]
- particle forming in dispersion medium [5]: did not form a particle
